According to patent US20020028938A1, “Prostaglandin endoperoxide H synthase biosynthesis inhibitors” (priority 1997, published 2002):

Row | SMILES | melting point
1 | CC(C)Oc1c(-c2ccc(S(C)(=O)=O)cc2)cnn(-c2cccc(Cl)c2)c1=O [Example 201, 2-(3-Chlorophenyl)-4-(2-propoxy)-5-[4-(methylsulfonyl)phenyl]-3(2H)-pyridazinone] | 134 to 136 °C
2 | CC(C)Oc1c(-c2ccc(S(C)(=O)=O)cc2)cnn(-c2cccc(F)c2)c1=O [Example 202, 2-(3-Fluorophenyl)-4-(2-propoxy)-5-[4-(methylsulfonyl)phenyl]-3(2H)-pyridazinone] | 110 to 112 °C
3 | CC(C)Oc1c(-c2ccc(S(C)(=O)=O)cc2)cnn(-c2cc(F)ccc2F)c1=O [Example 204, 2-(2,5-Difluorophenyl)-4-(2-propoxy)-5-[4-(methylsulfonyl)phenyl]-3(2H)-pyridazinone] | 161 to 164 °C
4 | CS(=O)(=O)c1ccc(-c2cnn(-c3cccc(Cl)c3)c(=O)c2COC(=O)c2ccccc2)cc1 [Example 208, 2-(3-Chlorophenyl)-4-(benzoyloxymethyl)-5-[4-(methylsulfonyl)phenyl]-3(2H)-pyridazinone] | 50 to 70 °C
5 | CS(=O)(=O)c1ccc(-c2cnn(CC(F)(F)F)c(=O)c2-c2ccc3c(c2)COC3=O)cc1 [Example 221, 2-(2,2,2-Trifluoroethyl)-4-(1-oxo-1,3-dihydro-2-benzofuran-5-yl)-5-[4-(methylsulfonyl)phenyl]-3(2H)-pyridazinone] | 237 to 239 °C
6 | C=CCc1c(-c2ccc(S(C)(=O)=O)cc2)cnn(CC(F)(F)F)c1=O [Example 222, 2-(2,2,2-Trifluoroethyl)-4-(2-propenyl)-5-[4-(methylsulfonyl)phenyl]-3(2H)-pyridazinone] | 192 to 195 °C
7 | CC=C(C)c1c(-c2ccc(S(C)(=O)=O)cc2)cnn(CC(F)(F)F)c1=O [Example 223, 2-(2,2,2-Trifluoroethyl)-4-(2-buten-2-yl)-5-[4-(methylsulfonyl)phenyl]-3(2H)-pyridazinone] | 175 to 180 °C
8 | Cc1ccc(-c2c(-c3ccc(S(C)(=O)=O)cc3)cnn(-c3ccc(F)cc3)c2=O)cc1 [Example 229, 2-(4-Fluorophenyl)-4-(4-methylphenyl)-5-[4-(methylsulfonyl)-phenyl]-3(2H)-pyridazinone] | 242 to 244 °C
9 | CS(=O)(=O)c1ccc(-c2cnn(-c3ccc(F)c(F)c3)c(=O)c2Cc2ccccc2)cc1 [Example 233, 2-(3,4-Difluorophenyl)-4-benzyl-5-[4-(methylsulfonyl)phenyl]-3(2H)-pyridazinone] | 166 to 168 °C
10 | CC#Cc1c(-c2ccc(S(C)(=O)=O)cc2)cnn(-c2ccc(F)c(F)c2)c1=O [Example 238, 2-(3,4-Difluorophenyl)-4-(1-propynyl)-5-[4-(methylsulfonyl)phenyl]-3(2H)-pyridazinone] | 149 to 150 °C
11 | Cc1ccc(-c2c(-c3ccc(S(C)(=O)=O)cc3)cnn(-c3ccc(F)cc3)c2=O)cc1F [Example 250, 2-(4-Fluorophenyl)-4-(3-fluoro-4-methylphenyl)-5-[4-(methylsulfonyl)phenyl]-3(2H)-pyridazinone] | 245 to 248 °C
12 | CS(=O)(=O)c1ccc(-c2cnn(-c3ccc(F)c(F)c3)c(=O)c2Cc2ccc(F)c(F)c2)cc1 [Example 255, 2-(3,4-Difluorophenyl)-4-(3,4-difluorobenzyl)-5-[4-(methylsulfonyl)phenyl]-3(2H)-pyridazinone] | 177 to 179 °C
13 | CC(C)CCc1c(-c2ccc(S(C)(=O)=O)c(F)c2)cnn(-c2ccc(F)c(F)c2)c1=O [Example 258, 2-(3,4-Difluorophenyl)-4-(3-methylbutyl)-5-[3-fluoro-4-(methylsulfonyl)phenyl]-3(2H)-pyridazinone] | 119 to 121 °C
14 | CSc1cc(-n2ncc(-c3ccc(S(C)(=O)=O)cc3)c(-c3ccc(F)cc3)c2=O)ccc1F [Example 259, 2-[4-Fluoro-3-(methylthio)phenyl]-4-(4-fluorophenyl)-5-[4-(methylsulfonyl)phenyl]-3(2H)-pyridazinone] | 105 to 107 °C
15 | CS(=O)(=O)c1ccc(-c2cnn(CC(F)(F)F)c(=O)c2Oc2ccc(C#N)cc2)cc1 [Example 264, 2-(2,2,2-Trifluoroethyl)-4-(4-cyanophenoxy)-5-[4-(methylsulfonyl)phenyl]-3(2H)-pyridazinone] | 179 to 181 °C
16 | CS(=O)(=O)c1ccc(-c2cnn(CC(F)(F)F)c(=O)c2Oc2ccc(-c3ccccc3)cc2)cc1 [Example 268, 2-(2,2,2-Trifluoroethyl)-4-(4-phenylphenoxy)-5-[4-(methylsulfonyl)phenyl]-3(2H)-pyridazinone] | 163 to 165 °C
17 | CS(=O)(=O)c1ccc(-c2cnn(CC(F)(F)F)c(=O)c2OCc2ccccc2)cc1 [Example 270, 2-(2,2,2-Trifluoroethyl)-4-(phenylmethoxy)-5-[4-(methylsulfonyl)phenyl]-3(2H)-pyridazinone] | 121 to 123 °C
18 | CS(=O)(=O)c1ccc(-c2cnn(CC(F)(F)F)c(=O)c2OC2CCc3ccccc32)cc1 (centres unmarked) [Example 276, 2-(2,2,2-Trifluoroethyl)-4-(1-indanyloxy)-5-[4-(methylsulfonyl)phenyl]-3(2H)-pyridazinone] | 113 to 114 °C
19 | CC(C)(C)CCOc1c(-c2ccc(S(C)(=O)=O)cc2)cnn(CC(F)(F)F)c1=O [Example 280, 2-(2,2,2-Trifluoroethyl)-4-(3,3-dimethylbutoxy)-5-[4-(methylsulfonyl)phenyl]-3(2H)-pyridazinone] | 83 to 85 °C
20 | CS(=O)(=O)c1ccc(-c2cnn(-c3ccc(F)c(F)c3)c(=O)c2Oc2ccc(Br)cc2)cc1 [Example 282, 2-(3,4-Difluorophenyl)-4-(4-bromophenoxy)-5-[4-(methylsulfonyl)phenyl]-3(2H)-pyridazinone] | 196 to 199 °C
21 | CS(=O)(=O)c1ccc(-c2cnn(CC(F)(F)F)c(=O)c2SCc2ccccc2)cc1 [Example 285, 2-(2,2,2-Trifluoroethyl)-4-phenylmethylthio-5-[4-(methylsulfonyl)phenyl]-3(2H)-pyridazinone] | 108 to 111 °C
22 | CC(C)(C)Sc1c(-c2ccc(S(C)(=O)=O)cc2)cnn(CC(F)(F)F)c1=O [Example 290, 2-(2,2,2-Trifluoroethyl)-4-(tert-butylthio)-5-[4-(methylsulfonyl)phenyl]-3(2H)-pyridazinone] | 186 to 189 °C
23 | CS(=O)(=O)c1ccc(-c2cnn(CC(F)(F)F)c(=O)c2N)cc1 [Example 294, 2-(2,2,2-Trifluoroethyl)-4-amino-5-[4-(methylsulfonyl)phenyl]-3(2H)-pyridazinone] | > 260 °C
24 | COCCCNc1c(-c2ccc(S(C)(=O)=O)cc2)cnn(CC(F)(F)F)c1=O [Example 295, 2-(2,2,2-Trifluoroethyl)-4-(3-methoxylpropylamino)-5-[4-(methylsulfonyl)phenyl]-3(2H)-pyridazinone] | 110 to 113 °C
25 | CS(=O)(=O)c1ccc(-c2cnn(CC(F)(F)F)c(=O)c2NC2CCCC2)cc1 [Example 296, 2-(2,2,2-Trifluoroethyl)-4-(cyclopentylamino)-5-[4-(methylsulfonyl)phenyl]-3(2H)-pyridazinone] | 134 to 139 °C
26 | COc1ccc(CCNc2c(-c3ccc(S(C)(=O)=O)cc3)cnn(CC(F)(F)F)c2=O)cc1OC [Example 298, 2-(2,2,2-Trifluoroethyl)-4-(3,4-dimethoxyphenethylamino)-5-[4-(methylsulfonyl)phenyl]-3(2H)-pyridazinone] | 163 to 165 °C
